Results taken from patent US20220193111A1, “Method of Treatment” (The University Court of the University of Edinburgh, priority 2018, published 2022).

Columns and labels:
Type in all cases: cell-based, human
HUVECs [1] = test: Immunofluorescence of transfected HUVECs; details: anti-miR, 48 hrs
Procedure: Cells were fixed using 4% paraformaldehyde in PBS at room temperature for 15 min. For intracellular staining, fixed cells were permeabilized using 0.5% Triton X-100 in PBS (Sigma-Aldrich) or 0.1% Saponin in PBS at room temperature for 10 min. The blocking of […] antibody activity was performed using 3% bovine serum albumin (BSA) in PBS for 1 hour. Samples were incubated with antibodies to CD31 (Abcam, ab28364, 1:50), VE-cadherin (Abcam, ab33168, 1:100), FSP-1 (Abcam, ab41532, 1:200) and COL1A1 (Abcam, ab138492, 1:100) in PBS containing 1% BSA at 4° C. overnight. Samples were washed extensively with PBS and incubated with Alexa-Fluor-488-conjugated antibodies to rabbit IgG (Life Technologies, Carlsbad, Calif., #A11070) and Alexa-Fluor-594-conjugated antibodies to rabbit IgG (Life Technologies, Carlsbad, Calif., #A11072) in DAPI with PBS with 1% BSA at room temperature for 1 h. Image analysis was performed on Zeiss LSM 780 confocal microscope.

HUVECs [2] = test: ECIS plasma membrane capacitance analysis; details: HUVECs knock-down for miR-148b
Procedure: Confluent HUVECs were transfected with controls or miR-148b mimic or anti-miR-148b and, plated on the ECIS chip array (8W1E or 8W10E). The migration speed was calculated in μm/h, capacitance of the plasma membrane is Cm (μF/cm^2) as reported in Giaever, I, and Keese, C R (1991)^29.

HUVECs [3] = test: Gene (qPCR) and protein (Western blot) expression in transfected HUVECs
Procedure: (§1) Human umbilical vein ECs (HUVECs; Lonza) were grown in EGM-2 (comprising EBM-2 with growth factors and other supplements) with 2% Foetal Bovine Serum. Confluent HUVECs were treated with 10 ng/ml TNF-α, IL-1β, TGFβ2 (PeproTech); medium and cytokines were changed every two days. SB431542 (Tocris) has been used at the dose of 10 μM. HEK293T cells (ATCC®, CRL-11268) were cultured in D-MEM with 10% FBS (Life Technologies).
(§2) Total RNA was extracted using miReasy kit (Qiagen). Real-time quantification to measure miRNAs was performed with the TaqMan miRNA reverse transcription kit and miRNA assay (Life Technology) using Lightcycler 480 (Roche). miRNAs expression was normalized to the U6 […] (snRU6). For mRNA analysis, cDNA was amplified by quantitative real-time PCR (qPCR) and normalized to 18S ribosomal RNA. Each reaction was performed in triplicate. Quantification was performed by the 2^−ΔΔCt method^52. qPCR was used to measure the expression of miR-148b (miR-148b-3p Thermo Fisher Scientific, Cat. #4426961), snRU6 (ThermoFisher Scientific, Cat. #4331182), TGFβ2, SMAD2, CD31, VE-Cadherin, COL1A1, α-SMA, SLUG, VIM, SNAIL, TWIST, ZEB1/2 and 18S rRNA. Primers are pre-designed from Sigma (KiCgStart™ Primers).
(§3) Lipofectamine RNAiMAX (Thermo Fisher Scientific) was used to transfect HUVECs with miR-148b mimic, anti-miR-148b and mimic or anti-miR control (25 nM and […], respectively final concentration) or with siRNA targeting SMAD2 (20 nM final concentration), according to the manufacturer's instructions. jetPEI-HUVECs (Polyplus) was used to transfect HUVECs with DNA plasmids. The following functional assays were performed: BrdU incorporation assay using Cell Proliferation colorimetric assay (Roche); Matrigel assay with HUVECs was performed as previously described using BD Matrigel Basement Membrane Matrix (BD Biosciences)^53.
(§4) Proteins were extracted from cultured cells or muscles by using ice-cold buffer A (50 mM Hepes, 150 mM NaCl, 1 mM EDTA, 1 mM EGTA, 25 mM NaF, 5 mM NaPPi, 1%Triton, 1% NP40, 1 mM Na3VO4, 0.25% sodium deoxycholate, 0.5 mM Na-orthovanadate, 1 mM benzamidine, 0.1 mM phenylmethylsulfonyl fluoride). Protein concentration was determined using the Bio-Rad Protein Assay Reagent (Bio-Rad Laboratories, UK). Detection of proteins by Western blot analyses was done following separation of whole cell extracts (20 μg) on SDS-polyacrylamide gels. Proteins were transferred to nitrocellulose membranes and probed with the following antibodies: TGFβ2 (Abcam, ab36495, 1:1000), SMAD2 (SantaCruz Biotechnology, Santa Cruz, Calif., USA; #3102, 1:1000), p-SMAD2 (465/467) (Cell Signaling; #3108, 1:1000); CD31 (Abcam., 1:1000), VE-Cadherin (Abcam, ab33168, 1:1000), COL1A1 (Abcam, ab138492, 1:200), FSP-1 (5100A4; Abcam, ab41532, 1:1000), SLUG (Abcam, ab27568, 1:1000), β-actin (Abcam, ab16039, 1:4000), HDAC3 (GeneTex GTX113303, 1:1000) and GAPDH (GeneTex, GT239, 1:1000) (both used as loading control). For detection, the inventors used secondary antibodies conjugated to horseradish peroxidase which were rabbit anti-mouse (Abcam, ab97046, 1:5000) and goat anti-rabbit (Abcam, ab6721, 1:10000). Detection was developed by chemiluminescence reaction (ECL) (Immunoblot, Millipore, 23225).

[4] = test system: HUVECs treated with TNF-α/IL-1β; test: Rescue of TNF-α/IL-1β-induced EndMT in HUVECs; details: mimic-transfected HUVECs, TNF-α/IL-1β 6 days
Procedure: as §1, §2, §3, §4
Cells were fixed using 4% paraformaldehyde in PBS at room temperature for 15 min. For intracellular staining, fixed cells were permeabilized using 0.5% Triton X-100 in PBS (Sigma-Aldrich) or 0.1% Saponin in PBS at room temperature for 10 min. The blocking of […] antibody activity was performed using 3% bovine serum albumin (BSA) in PBS for 1 hour. Samples were incubated with antibodies to CD31 (Abcam, ab28364, 1:50), VE-cadherin (Abcam, ab33168, 1:100), FSP-1 (Abcam, ab41532, 1:200) and COL1A1 (Abcam, ab138492, 1:100) in PBS containing 1% BSA at 4° C. overnight. […]

anti-miR-148b: miR-148b inhibitor oligonucleotide; suitable inhibitor: hsa-miR-148b-3p miRCURY LNA inhibitor, CAAAGTTCTGTGATGCACTG (SEQ ID NO: 6) (commercial miRCURY LNA inhibitor, LNA positions not given here)
CD31 and VE-cadherin immunoreactivity (HUVECs [1]): pronounced decrease | COL1A1 and FSP-1 immunoreactivity (HUVECs [1]): increase | rounded/cobblestone morphology (HUVECs [1]): lost | membrane capacitance (Cm) (HUVECs [2]): increased | expression of target genes TGFB2 and SMAD2 (mRNA) (HUVECs [3]; anti-miR 75 mM, 48 hrs): increased | CD31 and VE-cadherin (Western blot) (HUVECs [3]; anti-miR, 48 hrs): suppression | SLUG (Western blot) (HUVECs [3]; anti-miR, 48 hrs): up-regulation | SLUG expression (mRNA) (HUVECs [3]; anti-miR, 48 hrs): strong up-regulation | TGFB2, SMAD2 and its phosphorylation (Western blot) (HUVECs [3]; anti-miR, 48 hrs): upregulation | expression of CD31 and VE-Cadherin (mRNA) (HUVECs [3]; anti-miR, 48 hrs): decreased | expression of COL1A1 and FSP-1 (mRNA) (HUVECs [3]; anti-miR, 48 hrs): increased | mesenchymal markers COL1A1, FSP-1 (Western blot) (HUVECs [3]; anti-miR, 48 hrs): appearance | α-SMA or vimentin (VIM) levels (HUVECs [3]; anti-miR, 48 hrs): without detectable changes

B1: miR-148b mimic: miR-148b mimic oligonucleotide; in a particular embodiment has SEQ ID NO: 1, the human precursor miR-148b sequence (nucleic acid)
chain: CAAGCACGAUUAGCAUUUGAGGUGAAGUUCUGUUAUACACUCAGGCUGUGGCUCUCUGAAAGUCAGUGCAUCACAGAACUUUGUCUCGAAAGCUUUCUA
modifications: listed as RNA, chemistry not given here
target gene (TGFB2, SMAD2) mRNA (HUVECs [3]; mimic 25 nM): reduced | target gene (TGFB2, SMAD2) protein levels (HUVECs [3]; mimic 25 nM, Western blot): reduced | expression of ACVR1 and ROCK1 (HUVECs [3]; mimic transfection): did not affect | CD31 and VE-cadherin, mRNA and protein levels [4]: rescued | COL1A1 and FSP-1 staining (immunostaining) [4]: decrease | TGFB2, SMAD2, SLUG, FSP-1, COL1A1 (mRNA and protein) [4]: decreased | endothelial markers CD31 and VE-cadherin on ECs membrane (immunostaining) [4]: maintenance | phosphorylation of SMAD2 [4]: reduced
